Measurements reported in patent US20250034186A1, “ANTIVIRAL COMPOUNDS” (priority 2020, published 2025).
pEC50: −log10 of the molar value. Read-outs that look alike come from different tables or passages of the source.

Tests used:
RSV strain A2 = test: RSV HEp-2 EC50, infectious cytopathic cell protection assay; type: cell-based; settings: for pEC50: human respiratory syncytial virus, 96 h, RSV A2 in HEp-2 cells, 4 days, Cell TiterGlo
Method: Antiviral activity against RSV is determined using an infectious cytopathic cell protection assay in HEp-2 cells. In this assay, compounds inhibiting viral infection and/or replication produce a cytoprotective effect against the virus-induced cell killing that can be quantified using a cell viability reagent. The techniques used here are novel adaptations of methods described in published literature (Chapman et al., Antimicrob Agents Chemother. 2007, 51(9):3346-53.).
HEp-2 cells are obtained from ATCC (Manassas, VI) and maintained in MEM media supplemented with 10% fetal bovine serum and penicillin/streptomycin. Cells are passaged twice a week and kept at subconfluent stage. Commercial stock of RSV strain A2 (Advanced Biotechnologies, Columbia, MD) is titered before compound testing to determine the appropriate dilution of the virus stock that generates desirable cytopathic effect in HEp-2 cells.
For antiviral tests, HEp-2 cells are grown in large cell culture flasks to near confluency but not fully so. The compounds to be tested are prediluted in DMSO in 384-well compound dilution plates, either in an 8 or 40 sample per plate standardized dose response format. 3-fold serial dilution increments of each test compound are prepared in the plates and test samples are transferred via acoustic transfer apparatus (Echo, Labcyte) at 100 nL per well into cell culture assay 384-well plates. Each compound dilution is transferred in single or quadruplicate samples into dry assay plates, which are stored until assay is ready to go. The positive and negative controls are laid out in opposite on ends of the plate in vertical blocks (1 column).
Subsequently, an infectious mixture is prepared using an appropriate dilution of virus stock previously determined by titration with cells at a density of 50,000/mL and 20 μL/well is added to test plates w/compounds via automation (uFlow, Biotek). Each plate includes negative and positive controls (16 replicates each) to create 0% and 100% virus inhibition standards, respectively. Following the infection with RSV, testing plates are incubated for 4 days in a 37° C. cell culture incubator. After the incubation, a cell viability reagent, Cell TiterGlo (Promega, Madison, WI) is added to the assay plates, which are incubated briefly, and a luminescent readout is measured (Envision, Perkin Elmer) in all the assay plates. The RSV-induced cytopathic effect, percentage inhibition, is determined from the levels of remaining cell viability. […] Various potent anti-RSV tool compounds are used as positive controls for antiviral activity.

RSV A2 = test: RSV NHBE EC50, RSV A2 antiviral assay; type: cell-based; settings: for pEC50: human respiratory syncytial virus, 96 h, RSV A2 in NHBE cells, 4 days
Method: (§1) Normal human bronchial epithelial (NHBE) cells were purchased from Lonza (Walkersville, MD, Cat #CC-2540) and cultured in Bronchial Epithelial Growth Media (BEGM) (Lonza, Walkersville, MD, Cat #CC-3170). The cells were passaged 1-2 times per week to maintain <80% confluency. The NHBE cells were discarded after 6 passages in culture.
To conduct the RSV A2 antiviral assay, NHBE cells were plated in 96-well plates at a density of 7,500 cells per well in BEGM and allowed to attach overnight at 37° C. Following attachment, 100 μL of cell culture media was removed and 3-fold serially diluted compound was added using a Hewlett-Packard D300 Digital Dispenser. The final concentration of DMSO was normalized to 0.05%. Following compound addition, the NHBE cells were infected by the addition of 100 μL of RSV A2 at a titer of 1×10^4.5 tissue culture infectious doses/mL in BEGM and then incubated at 37° C. for 4 days. The NHBE cells were then allowed to equilibrate to 25° C. and cell viability was determined by removing 100 μL of culture medium and adding 100 μL of Cell-Titer Glo viability reagent. The mixtures were incubated for 10 minutes at 25° C., and the luminescence signal was quantified on an Envision luminescence plate reader.

NHBE cytotoxicity assay = type: cell-based; settings: human, normal bronchial epithelial (NHBE) cells
Method: as §1, with “confluency per manufacturer's protocol.” for “confluency.”, “5” for “6”
Following attachment, 3-fold serially diluted compound was added using a Hewlett-Packard D300 Digital Dispenser (Hewlett Packard, Palo Alto, CA) in triplicate. The final concentration of DMSO was normalized to 1.0%. Following compound addition, NHBE or SAEC cells were incubated at 37° C. for 5 days. The NHBE or SAEC cells were then allowed to equilibrate to 25° C. and cell viability was determined by removing 100 μL of culture medium and adding 100 μL of Cell-Titer Glo viability reagent (Promega, Madison, WI). The mixtures were incubated for 10 minutes at 25° C., and the luminescence signal was quantified on an Envision luminescence plate reader (PerkinElmer, Waltham, MA). Percent viability values were determined by normalization to 1.0% DMSO-only control wells with background luminescent signal subtracted out.

MRC5 cytotoxicity assay = type: cell-based; settings: human, MRC5 cells
Method: Compounds were tested in a high-throughput 384-well assay format for cytotoxicity in MRC5 cells (human fetal lung fibroblast cell line). Cells were diluted in media (MEM (10-010-CM), 10% FBS, 1% PSG) to 16.6K cells/mL and plated at 90 uL/well into 384 well poly-D-lysine coated assay plates and placed in an incubator at 37° C. and 5% CO2. Compounds were serially diluted (1:3) in 100% DMSO in 384-well plates in quadruplicate. DMSO and 2 mM Puromycin were included as negative and positive controls respectively. 24 hours after cell plating, a 384 channel pipettor was used to transfer 0.4 uL from the compound plate to the assay plate. Assay plates were returned to the incubator. After 5 days, assay plates were washed with 80 uL/well of PBS before addition of 20 μL of Cell Titer Glo. Assay plates were read on the Envision plate reader. […] CC50 values were calculated in Accord (on-line tool) using a one-site dose-response model to generate sigmoidal curve fits.

in vitro = in vitro ADME; settings: plasma, 37° C., up to 4 h
Method: For plasma stability, the compounds were incubated at 2 μM in cynomolgus monkey or human plasma for up to 4 h at 37° C. At desired time points, an aliquot from the incubation was quenched by addition of 9 volumes of 100% acetonitrile supplemented with internal standard. Following the last collection, samples were centrifuged at 3000 g for 30 min and supernatants were transferred to a new plate containing an equal volume of water for analysis by liquid chromatography coupled to triple quadrupole mass spectrometry (LC-MS/MS). Data (analyte to internal standard peak area ratio) were plotted on a semi log scale and fitted using an exponential fit. The half-life (T1/2) was determined assuming first order kinetics.

[1] = human, read-out: Hum Plasma t1/2
[2] = cynomolgus monkey, read-out: Cyno Plasma t1/2

SMILES | pEC50 (RSV strain A2) | pEC50 (RSV A2) | CC50 at 5 days (NHBE cytotoxicity assay) [µM] | CC50 at 5 days (MRC5 cytotoxicity assay) [µM] | half-life at 2 μM (in vitro; [1]) [min] | half-life at 2 μM (in vitro; [2]) [min] | times more potent than compound 7, RSV HEp-2 (RSV strain A2; EC50 ratio vs compound 7) [times] | times as potent as compound 7, RSV NHBE (RSV A2; EC50 ratio vs compound 7) [times] | times more potent than the compound of Formula Ib, RSV HEp-2 (RSV strain A2; EC50 ratio vs Formula Ib) [times] | more potent relative to compound 1, RSV Hep-2 (RSV strain A2; EC50 ratio vs compound 1) | times more potent relative to compound 3, RSV Hep-2 (RSV strain A2; EC50 ratio vs compound 3) | times more potent relative to compound 4, RSV Hep-2 (RSV strain A2; EC50 ratio vs compound 4) | times more potent relative to compound 5, RSV Hep-2 (RSV strain A2; EC50 ratio vs compound 5) | more potent than the compound of Formula Ib, RSV NHBE (RSV A2; EC50 ratio vs Formula Ib) | more potent relative to compound 1, RSV NHBE (RSV A2; EC50 ratio vs compound 1) | times more potent relative to compound 3, RSV NHBE (RSV A2; EC50 ratio vs compound 3) | times more potent relative to compound 4, RSV NHBE (RSV A2; EC50 ratio vs compound 4) | times more potent relative to compound 5, RSV NHBE (RSV A2; EC50 ratio vs compound 5)
CCOC(=O)[C@H](C)NP(=O)(OC[C@@]1(C#N)O[C@@H](c2ccc3c(N)ncnn23)[C@H](O)[C@@H]1O)Oc1ccccc1 (some centres unmarked) [Compound 1, reference compound] | 6.45 | 6.26 | > 50 | > 44.4 | 667 |  |  |  |  |  |  |  |  |  |  |  |  | 
CCC(CC)COC(=O)[C@H](C)NP(=O)(OC[C@@]1(C#N)O[C@@H](c2ccc3c(N)ncnn23)[C@H](O)[C@@H]1O)Oc1ccccc1 (some centres unmarked) [Compound 2, reference compound] | 7.16 | 7.12 | 29.1 | > 44.4 | 152 | 289 |  |  |  |  |  |  |  |  |  |  |  | 
CCC(CC)COC(=O)[C@H](C)N[P@](=O)(OC[C@@]1(C#N)O[C@@H](c2ccc3c(N)ncnn23)[C@H](O)[C@@H]1O)Oc1ccccc1 [Compound 6, 2-ethylbutyl ((S)-(((2R,3S,4R,5S)-5-(4-aminopyrrolo[2,1-f][1,2,4]triazin-7-yl)-2-cyano-3,4-dihydroxytetrahydrofuran-2-yl)methoxy)(phenoxy)phosphoryl)alaninate] | 7.59 | 6.90 | 24.4 | > 88.4 | 131 | 257 | 4.8 | 0.7 |  |  |  |  |  |  |  |  |  | 
C[C@H](N[P@](=O)(OC[C@@]1(C#N)O[C@@H](c2ccc3c(N)ncnn23)[C@H](O)[C@@H]1O)Oc1ccccc1)C(=O)OC1CCCCC1 [Formula I, cyclohexyl ((S)-(((2R,3S,4R,5S)-5-(4-aminopyrrolo[2,1-f][1,2,4]triazin-7-yl)-2-cyano-3,4-dihydroxytetrahydrofuran-2-yl)methoxy)(phenoxy)phosphoryl)-L-alaninate] | 7.06 | 6.91 | > 40.1 | > 44.4 | 483 | 444 |  |  | 31.1 | about 4.0 | about 5 times | about 3.9 times | about 19.8 times | 5.1 | ~4.4 | about 9.3 times | about 7.1 times | about 10.0 times
